In patent publication US11530244B2, “Cyclic polypeptides for PCSK9 inhibition” (priority 2018, dated 2022):
Starred links: 1 amine or outer side, 2 acyl side, 3 side chain; linkers in the order of their positions; H or OH if unused. Positions of bridges follow the written chain, without caps; N, C: chain ends. Non-standard residues stand in square brackets, D forms with d. Residues, ends and D or L forms follow the SMILES beside them. ξ: configuration not given here. NHCH2(1,3-C6H4)CH2CO = O=C(Cc1cccc(CN[*:1])c1)[*:2]; Pro(cis-4-OPh) = O=C(O)[C@@H]1C[C@H](Oc2ccccc2)CN1; Trp(5-OH) = N[C@@H](Cc1c[nH]c2ccc(O)cc12)C(=O)O; Trp(5-F) = N[C@@H](Cc1c[nH]c2ccc(F)cc12)C(=O)O; Phe(4-CH2NH2) = NCc1ccc(C[C@H](N)C(=O)O)cc1; isoGln = NC(=O)[C@H](CCC(=O)[*:2])N[*:1]; Nle(6-COOH) = N[C@@H](CCCCC(=O)O)C(=O)O; X4 = O=C(CCSCc1cccc(CSCCN[*:1])c1)[*:2]; γGlu = O=C(O)[C@H](CCC(=O)[*:2])N[*:1]; mXylylene = c1cc(C[*:1])cc(C[*:2])c1; d(aThr) = C[C@@H](O)[C@@H](N)C(=O)O; Glutaryl = O=C(CCCC(=O)[*:2])[*:1]; X7 = O=C(Cc1ccc(CN[*:1])cc1)[*:2]; aThr = C[C@H](O)[C@H](N)C(=O)O; αMeP = C[C@@]1(C(=O)O)CCCN1; hSer = N[C@@H](CCO)C(=O)O; ξD = NC(CC(=O)O)C(=O)O; X2 = O=C(C[*:2])[*:1]; Mpa = O=C(O)CCS

Tests used:
Type in all cases: binding
PCSK9 [1] = biological target: T1, PCSK9 (Homo sapiens (Human), UniProt Q8NBP7); assay: PCSK9 Alexa FRET Plus assay (displacement of AlexaFluor647 tagged cyclic peptide Reagent B); settings: Alexa FRET Plus, 0.5 nM PCSK9, 960 nM AF cyclic peptide Reagent B; read-out: IC50
T1 sequence (Q8NBP7 153-692): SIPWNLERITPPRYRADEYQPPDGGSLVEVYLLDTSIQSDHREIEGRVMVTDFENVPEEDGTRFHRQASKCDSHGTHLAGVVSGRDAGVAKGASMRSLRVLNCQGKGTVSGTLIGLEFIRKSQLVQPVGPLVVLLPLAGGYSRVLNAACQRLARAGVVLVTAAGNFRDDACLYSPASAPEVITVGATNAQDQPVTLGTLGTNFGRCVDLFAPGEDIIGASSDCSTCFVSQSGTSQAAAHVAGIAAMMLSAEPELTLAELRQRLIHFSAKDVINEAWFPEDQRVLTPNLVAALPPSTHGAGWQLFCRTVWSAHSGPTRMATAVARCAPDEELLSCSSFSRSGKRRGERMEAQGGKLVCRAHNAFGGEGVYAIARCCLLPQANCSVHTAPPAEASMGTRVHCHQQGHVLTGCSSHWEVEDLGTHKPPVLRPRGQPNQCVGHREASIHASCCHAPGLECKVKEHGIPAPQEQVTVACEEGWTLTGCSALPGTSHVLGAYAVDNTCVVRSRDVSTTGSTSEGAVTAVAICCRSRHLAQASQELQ
How it was run: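 TR-FRET displacement with final 0.5 nM biotinylated PCSK9, 1.25 nM Strep-Eu and 960 nM AlexaFluor-tagged cyclic peptide in HEPES pH 7.4, NaCl, CaCl2, BSA, P20; ≥2 h at room temperature. IC50 from sigmoidal fit, converted to Ki using peptide KD. Falling europium counts flagged false positives.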

[2] = biological target: human PCSK9 / human LDLR EGFa domain interaction (Homo sapiens (Human), UniProt Q8NBP7); assay: TR-FRET assay of inhibition of the PCSK9-LDLR protein-protein interaction; settings: TR-FRET, 20 nM human PCSK9, 20 nM human LDLR EGFa domain, 2 hours room temperature; read-out: IC50
Chain of human PCSK9 / human LDLR EGFa domain interaction (Q8NBP7 153-692): as above
Chain of human PCSK9 / human LDLR EGFa domain interaction (Q8NBP7 31-152 partner): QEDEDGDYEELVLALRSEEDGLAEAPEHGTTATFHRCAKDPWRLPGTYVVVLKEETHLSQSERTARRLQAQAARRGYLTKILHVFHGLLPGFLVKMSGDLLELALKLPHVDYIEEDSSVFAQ
How it was run: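 20 nM biotin-avitag PCSK9 + 20 nM His-LDLR EGFa; 5 nM Ulight-SA / 5 nM Eu-anti-His; 2 h RT; HEPES 50 mM, NaCl 150 mM, CaCl2 5 mM, 0.01% BSA, 0.01% P20. Half-maximal inhibition, 4-parameter fit.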

PCSK9 [3] = biological target: T1, PCSK9; assay: PCSK9 Alexa FRET Standard assay (displacement of AlexaFluor647 tagged cyclic peptide Reagent A); settings: PCSK9 Alexa FRET Standard assay, 0.5 nM PCSK9, 20 nM AF cyclic peptide Reagent A; read-out: IC50
How it was run: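 TR-FRET displacement: 0.5 nM biotinylated PCSK9 with 1.25 nM Strep-Eu and 20 nM AlexaFluor-tagged cyclic peptide (final) in 50 mM HEPES pH 7.4, 0.15 M NaCl, 5 mM CaCl2, 0.01% BSA, 0.01% P20, ≥2 h at room temperature. IC50 from sigmoidal fit, converted to Ki via peptide KD; falling Eu counts flagged false positives.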

Row | IC50 (PCSK9 [1]) [nM] | IC50 [2] [nM] | IC50 (PCSK9 [3]) [nM] | Compound
1 | 100 to 500 | 0.1 to 100 | 0.11 to 100 | C[C@@]12CCCN1C(=O)[C@H](Cc1ccc(O)cc1)NC(=O)[C@H](Cc1cnc[nH]1)NC(=O)[C@H](CC(=O)O)NC(=O)[C@H](Cc1c[nH]c3ccc(F)cc13)NC(=O)[C@H](Cc1c[nH]c3ccc(F)cc13)NC(=O)CNC(=O)[C@H](CCO)NC(=O)CCSCc1cccc(c1)CSC[C@@H](C(N)=O)NC2=O [Compound 376] ([Mpa][hSer]G[Trp(5-F)][Trp(5-F)]DHY[αMeP]C-NH2; linker 1-10 via mXylylene)
2 | 100 to 500 | 0.1 to 100 | 0.11 to 100 | CO[C@@H](C)[C@@H]1NC(=O)CCSCc2cccc(c2)CSC[C@@H](C(N)=O)NC(=O)[C@]2(C)CCCN2C(=O)[C@H](Cc2ccc(O)cc2)NC(=O)[C@H](Cc2cnc[nH]2)NC(=O)[C@H](CC(=O)O)NC(=O)[C@H](Cc2c[nH]c3ccc(F)cc23)NC(=O)[C@H](Cc2c[nH]c3ccc(F)cc23)NC(=O)CNC1=O [Compound 377] ([Mpa][aThr](Me)G[Trp(5-F)][Trp(5-F)]DHY[αMeP]C-NH2; linker 1-10 via mXylylene)
3 | 0.1 to 100 | 0.1 to 100 | 0.11 to 100 | COc1ccc(C[C@@H]2NC(=O)[C@@H]([C@@H](C)O)NC(=O)[C@H](CCCCC(=O)O)NC(=O)[C@H](Cc3c[nH]c4ccc(F)cc34)NC(=O)[C@H](Cc3ccc(CN)cc3)NC(=O)[C@@H](C)NC(=O)[C@H](C)NC(=O)CCSCc3cccc(c3)CSCCNC(=O)[C@]3(C)CCCN3C2=O)cc1 [Compound 385] (cyclo(A[dA][Phe(4-CH2NH2)][Trp(5-F)][Nle(6-COOH)][d(aThr)]Y(Me)[αMeP][X4]))
4 | 100 to 500 | 0.1 to 100 | 0.11 to 100 | C[C@@]12CCCN1C(=O)[C@H](Cc1ccc(O)cc1)NC(=O)[C@H](Cc1cnc[nH]1)NC(=O)[C@H](CC(=O)O)NC(=O)[C@H](Cc1c[nH]c3ccc(O)cc13)NC(=O)[C@H](Cc1c[nH]c3ccc(F)cc13)NC(=O)CNC(=O)[C@H](CCCCN)NC(=O)CCSCc1cccc(c1)CSC[C@@H](C(N)=O)NC2=O [Compound 399] ([Mpa]KG[Trp(5-F)][Trp(5-OH)]DHY[αMeP]C-NH2; linker 1-10 via mXylylene)
5 | 0.1 to 100 | 0.1 to 100 | 0.11 to 100 | COc1ccc(C[C@@H]2NC(=O)[C@H](Cc3cnc[nH]3)NC(=O)[C@H](CC(=O)O)NC(=O)[C@H](Cc3c[nH]c4ccc(F)cc34)NC(=O)[C@H](Cc3c[nH]c4ccc(F)cc34)NC(=O)[C@@H](C)NC(=O)Cc3cccc(c3)CNC(=O)CC(C(=O)O)NC(=O)[C@]3(C)CCCN3C2=O)cc1 (stereo partly drawn) [Compound 401] ([NHCH2(1,3-C6H4)CH2CO][dA][Trp(5-F)][Trp(5-F)]DHY(Me)[αMeP][ξD]-OH; lactam N-9)
6 | 0.1 to 100 | 0.1 to 100 | 0.11 to 100 | COc1ccc(C[C@@H]2NC(=O)[C@@H]3CCCCC(=O)N[C@H]4C[C@@H](C(=O)N3)N(C4)C(=O)[C@H](Cc3c[nH]c4ccc(F)cc34)NC(=O)[C@H](Cc3c[nH]c4ccc(F)cc34)NC(=O)[C@@H](C)NC(=O)[C@H](CCCN=[N+]=[N-])NC(=O)CCSCc3cccc(c3)CCSCNC(=O)[C@]3(C)CCCN3C2=O)cc1 [Compound 520]

The next lines start with the compound.

Row | Compound | IC50 (PCSK9 [1]) [nM] | IC50 [2] [nM] | IC50 (PCSK9 [3]) [nM]
7 | CC(=O)N[C@H]1CCCCNC(=O)COc2ccc(cc2)C[C@@H](C(N)=O)NC(=O)[C@]2(C)CCCN2C(=O)[C@H](Cc2ccc(O)cc2)NC(=O)[C@H](Cc2cnc[nH]2)NC(=O)[C@H](CC(=O)O)NC(=O)[C@H](Cc2c[nH]c3ccc(F)cc23)NC(=O)[C@H](Cc2c[nH]c3ccc(F)cc23)NC(=O)CNC1=O [Compound 365] (Ac-KG[Trp(5-F)][Trp(5-F)]DHY[αMeP]Y-NH2; linker 1-9 via X2) | 0.1 to 100 | 0.1 to 100 | 0.11 to 100
8 | C[C@@H]1NC(=O)CCCC(=O)NCc2ccc(cc2)C[C@@H](C(N)=O)NC(=O)[C@]2(C)CCCN2C(=O)[C@H](Cc2ccc(O)cc2)NC(=O)[C@H](Cc2cnc[nH]2)NC(=O)[C@H](CC(=O)O)NC(=O)[C@H](Cc2c[nH]c3ccc(F)cc23)NC(=O)[C@H](Cc2c[nH]c3ccc(F)cc23)NC(=O)CNC1=O [Compound 366] (AG[Trp(5-F)][Trp(5-F)]DHY[αMeP][Phe(4-CH2NH2)]-NH2; linker N-9 via Glutaryl) | 0.1 to 100 | 0.1 to 100 | 0.11 to 100
9 | NCCCC[C@@H]1NC(=O)CCSCc2cccc(c2)CSC[C@@H](C(N)=O)NC(=O)[C@@H]2C[C@H](Oc3ccccc3)CN2C(=O)[C@H](Cc2ccc(O)cc2)NC(=O)[C@H](Cc2cnc[nH]2)NC(=O)[C@H](CC(=O)O)NC(=O)[C@H](Cc2c[nH]c3ccc(F)cc23)NC(=O)[C@H](Cc2c[nH]c3ccc(F)cc23)NC(=O)CNC1=O [Compound 367] ([Mpa]KG[Trp(5-F)][Trp(5-F)]DHY[Pro(cis-4-OPh)]C-NH2; linker 1-10 via mXylylene) | 500 to 5000 | 0.1 to 100 | 100 to 1000
10 | COc1ccc(C[C@@H]2NC(=O)[C@H](Cc3cnc[nH]3)NC(=O)[C@H](CC(=O)O)NC(=O)[C@H](Cc3c[nH]c4ccc(F)cc34)NC(=O)[C@H](Cc3c[nH]c4ccc(F)cc34)NC(=O)[C@@H](C)NC(=O)[C@H](NC(C)=O)CCCCNC(=O)Cc3cccc(c3)CNC(=O)CC[C@@H](C(=O)O)NC(=O)[C@]3(C)CCCN3C2=O)cc1 [Compound 396] (Ac-[dK][dA][Trp(5-F)][Trp(5-F)]DHY(Me)[αMeP][γGlu][NHCH2(1,3-C6H4)CH2CO]; lactam 1-C) | 100 to 500 | 0.1 to 100 | 0.11 to 100
11 | COc1ccc(C[C@@H]2NC(=O)[C@H](Cc3cnc[nH]3)NC(=O)[C@H](CC(=O)O)NC(=O)[C@H](Cc3c[nH]c4ccc(F)cc34)NC(=O)[C@H](Cc3c[nH]c4ccc(F)cc34)NC(=O)[C@@H](C)NC(=O)[C@H](NC(C)=O)CCCCNC(=O)Cc3ccc(cc3)CNC(=O)CC[C@@H](C(N)=O)NC(=O)[C@]3(C)CCCN3C2=O)cc1 [Compound 398] (Ac-[dK][dA][Trp(5-F)][Trp(5-F)]DHY(Me)[αMeP][isoGln][X7]; lactam 1-C) | 100 to 500 | 0.1 to 100 | 0.11 to 100
